The values that follow come from US20230074545A1, “TREATMENT OF CANCER WITH CDK12/13 INHIBITORS” (Kinnate Biopharma Inc., priority 2019, published 2023).

The subject of test [1] is BRCA1. Put plainly: DDR gene expression (qPCR) in HCC70 cells. In kind it is cell-based. The procedure: HCC70 (ATCC CRL-2315) cells in 96-well plate format were treated with either DMSO or compound 1 for 2 hours. After compound treatment was done for 2 hours, the plates were washed by PBS once, then fresh culture medium was added to the cells and cells were incubated for 4, 10, 22, 46, 70 hours respectively. At each time point (4, 10, 22, 46, 70 hours after 2 h washout) RNA extraction was done according to manufacturer's instructions as follows. RNA Extraction and qPCR was done using the Ambion Cell to CT kit (Cat #AM1728). Briefly, cells were removed from the incubator, washed once in PBS, lysed by adding 50 μL Lysis Solution from the kit, mixed 5 times and 5 μL Stop Solution was added to the well. All actions were done using RNAase and DNAase free labware.
The Reverse Transcription Reaction mix was then prepared. All reagents were kept in an ice-water bath during the whole operation. […]
The setting of QuantStudio®5 Real-Time qPCR System was shown in the following figure and the fluorescence gain was set at 1×.
Data Analysis was done according to the QuantStudio5 Software. Threshold of signal was calculated by QuantStudio 5 software using the default setting. The relative gene expression was evaluated using the following formulas: […]
Gene expression was detected using qPCR with the Taqman (Applied Biosystems, ThermoFisher Scientific; Carlsbad, Calif.) probe listed in Table 7. […]

Test [2] relates to BRCA1. Put plainly: DDR gene expression in HCC70 xenograft tumor cells. In kind it is in vivo, CB-17 SCID mice. As to conditions: single intravenous dose 20 or 25 mg/kg; 6 and 24 hours after dose. The procedure:
A triple-negative xenograft model of breast cancer was used in this experiment. CB-17 SCID mice were inoculated with the HCC70 cells as the in vivo model for triple negative breast cancer. Each mouse was inoculated subcutaneously on the right flank with HCC70 tumor cells (5×10^6) in 0.1 mL of RPMI-1640 Medium and Matrigel mixture (1:1 ratio) for tumor development. The treatment started when the mean tumor size reached approximately 100-150 mm^3. Mice were treated with a single dose of either vehicle, 20 mg/kg compound 4, or 25 mg/kg of compound 4 intravenously. 0.5, 6, and 24 hours post dose, tumor cells were collected and analyzed for gene expression.

For the next test, the system named is OVCAR-3 tumors. Kind of test: OVCAR-3 mouse xenograft model of ovarian cancer. In kind it is in vivo, NOD SCID female mice. The text has this:
To test the efficacy of the compounds in vivo, studies were done in mouse xenografts. For all studies, general procedures for animal care and housing were done in accordance with the standard, Commission on Life Sciences, National Research Council, Standard operating procedures (SOPs) of Pharmaron, Inc (Beijing, China). The mice were kept in laminar flow rooms at constant temperature and humidity with 3-5 mice in each cage with bedding changed once weekly. Animals were housed in polycarbonate cage which is in the size of 300×180×150 mm^3 and in an environmentally monitored, well-ventilated room maintained at a temperature of (22±3° C.) and a relative humidity of 40%-70% on a 12:12 light:dark cycle with full spectrum lighting. Each animal was assigned an identification number; the following identification method will be applied. Cage cards were labeled with such information as study number, group, sex, dose, animal number, initiation date, study director and telephone number. Animals were identified by ear coding. Animals had free access to irradiation sterilized dry granule food during the entire study period except for time periods specified by the protocol.
For the OVCAR-3 study, NOD SCID female mice bearing the OVCAR-3 tumors were randomized into 5 groups (n=9 mice per group) 17 day post tumor implantation with an average tumor volume of 150 mm^3. Each group received either vehicle (3% DMSO, 97.0% (20% HP-β-CD in water) or 5.0, 10, 20 and 25.0 mg/kg of compound 4 biweekly (Monday, Thursday), a total of 4 doses were intravenously administered through the course of 14 day efficacy study. Immediately after every treatment dose, a saline flush of 0.1 mL were also administered. One last dose was intravenously administered on Day 15 for end of study PK plasma and PD tumor collections as indicated in the protocol. Tumor volumes were measured by caliper 2 times a week and body weights of all animals were recorded throughout the study.
Protocol-required measurements and observations were recorded manually onto excel spread sheets. All statistical tests were conducted, and the level of significance was set at 5% or P<0.05. The group means, standard deviation was calculated for all measurement parameters as study designed. Two-way RM ANOVA followed by Tukeys post hoc comparisons of the means was utilized for this study.

Regarding `C=CC(=O)Nc1ccc(C(=O)N2CC[C@@H](Nc3ncc(Cl)c(OC)n3)C2)cc1` [Compound 1, (R)-N-(4-(3-((5-chloro-4-methoxypyrimidin-2-yl)amino)pyrrolidine-1-carbonyl)phenyl)acrylamide], in the test on BRCA1 [1] (2 hours treatment then washout, qPCR), the “levels of BRCA1 expression” value is “reduction in levels of BRCA1 expression”. Moreover, in the test on BRCA1 [1] (after treatment (post-washout)), the “time of strongest reduction in gene expression (BRCA1)” value is 10 h.
In the case of `C=CC(=O)Nc1ccc(C(=O)N2CC[C@@H](Nc3ncc(C#N)cn3)C2)cc1` [Compound 4, (R)-N-(4-(3-((5-cyanopyrimidin-2-yl)amino)pyrrolidine-1-carbonyl)phenyl)acrylamide], the “BRCA1 expression in tumor cells” value with BRCA1 [2] was “reduced”. For the same compound, the T/C in the test on OVCAR-3 tumors (5.0 mg/kg intravenously biweekly for 14 days, compared to vehicle control) is 36%; in the test on OVCAR-3 tumors (10 mg/kg intravenously biweekly for 14 days, compared to vehicle control), 13%; with OVCAR-3 tumors (20 mg/kg intravenously biweekly for 14 days) it was −7%; with OVCAR-3 tumors (25 mg/kg intravenously biweekly for 14 days), −9%.
